Results: patent US11008301B2, “Piperidinone formyl peptide 2 receptor agonists” (BRISTOL-MYERS SQUIBB COMPANY, priority 2017, dated 2021)
Read-outs that look alike come from different tables or passages of the source.

Experiments:
[1] = molecular target: human FPR2 (Homo sapiens (Human), UniProt P25090); test: FPR2 cyclic adenosine monophosphate (cAMP) assay; format: cell-based; conditions: CHO cells overexpressing human FPR2
Description: (§1) FPR2 and FPR1 Cyclic Adenosine Monophosphate (cAMP) Assays. A mixture of forskolin (5 μM final for FPR2 or 10 μM final for FPR1) and IBMX (200 μM final) were added to 384-well Proxiplates (Perkin-Elmer) pre-dotted with test compounds in DMSO (1% final) at final concentrations in the range of 1.7 nM to 100 μM. Chinese Hamster Ovary cells (CHO) overexpressing human FPR1 or human FPR2 receptors were cultured in F-12 (Ham's) medium supplemented with 10% qualified FBS, 250 μg/ml zeocin and 300 μg/ml hygromycin (Life Technologies). Reactions were initiated by adding 2,000 human FPR2 cells per well or 4,000 human FPR1 cells per well in Dulbecco's PBS (with calcium and magnesium) (Life Technologies) supplemented with 0.1% BSA (Perkin-Elmer). The reaction mixtures were incubated for 30 min at room temperature. The level of intracellular cAMP was determined using the HTRF HiRange cAMP assay reagent kit (Cisbio) according to manufacturer's instruction. Solutions of cryptate conjugated anti-cAMP and d2 flurorophore-labelled cAMP were made in a supplied lysis buffer separately. Upon completion of the reaction, the cells were lysed with equal volume of the d2-cAMP solution and anti-cAMP solution. After a 1-h room temperature incubation, time-resolved fluorescence intensity was measured using the Envision (Perkin-Elmer) at 400 nm excitation and dual emission at 590 nm and 665 nm. A calibration curve was constructed with an external cAMP standard at concentrations ranging from 1 μM to 0.1 pM by plotting the fluorescent intensity ratio from 665 nm emission to the intensity from the 590 nm emission against cAMP concentrations. The potency and activity of a compound to inhibit cAMP production was then determined by fitting to a 4-parametric logistic equation from a plot of cAMP level versus compound concentrations.

[2] = molecular target: human FPR1 (Homo sapiens (Human), UniProt P21462); test: FPR1 cyclic adenosine monophosphate (cAMP) assay; format: cell-based; conditions: CHO cells overexpressing human FPR1; forskolin 10 μM; inhibition of cAMP production; read-out: hFPR1 cAMP EC50
human FPR1, sequence (P21462 whole entry): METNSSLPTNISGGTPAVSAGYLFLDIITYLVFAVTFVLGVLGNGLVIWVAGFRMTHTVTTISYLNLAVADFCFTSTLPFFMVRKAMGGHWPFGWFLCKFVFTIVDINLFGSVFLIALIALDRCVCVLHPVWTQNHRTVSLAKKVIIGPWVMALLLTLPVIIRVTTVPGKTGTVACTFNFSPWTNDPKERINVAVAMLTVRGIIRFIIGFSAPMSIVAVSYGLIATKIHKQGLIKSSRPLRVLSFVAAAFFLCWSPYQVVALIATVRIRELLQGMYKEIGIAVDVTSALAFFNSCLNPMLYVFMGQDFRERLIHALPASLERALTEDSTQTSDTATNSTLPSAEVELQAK
Description: as §1

[3] = cAMP assay, read-out: hFPR2 agonist activity EC50 (hFPR2 Assay)
[4] = forskolin 5 μM, inhibition of cAMP production, read-out: hFPR2 cAMP2 EC50

human FPR2, sequence (P25090 whole entry): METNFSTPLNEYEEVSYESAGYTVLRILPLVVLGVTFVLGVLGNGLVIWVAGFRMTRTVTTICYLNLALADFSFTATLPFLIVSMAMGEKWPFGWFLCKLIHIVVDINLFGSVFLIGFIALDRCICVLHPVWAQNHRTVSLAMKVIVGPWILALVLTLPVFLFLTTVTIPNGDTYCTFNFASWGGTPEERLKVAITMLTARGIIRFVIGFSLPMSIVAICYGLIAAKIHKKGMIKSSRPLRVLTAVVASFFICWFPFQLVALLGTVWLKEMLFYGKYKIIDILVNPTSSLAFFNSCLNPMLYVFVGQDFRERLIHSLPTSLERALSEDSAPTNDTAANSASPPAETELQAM

Q: What does the source list for O=C(Nc1ccc(C(F)(F)F)cc1)N[C@@H]1CCCN(c2ccc(N3CCCCC3=O)cc2)C1=O [Example 4]?
A: EC50 [1, 3]: 10 to 100 nM; EC50 [1, 4]: 28 nM; EC50 [2]: 410 nM

Q: O=C(Nc1ccc(C(F)(F)F)cc1)N[C@H]1CCCN(c2ccc(N3CC4(COC4)C3)cc2)C1=O [Example 9] was tested. Which EC50 [1, 3] did it give?
A: 100 to 1000 nM

Q: What about the EC50 [1, 4] of the same compound?
A: 540 nM

Q: And the EC50 [2]?
A: 1500 nM

Q: Which EC50 [1, 3] does the source give for O=C(Nc1ccc(C(F)(F)F)cn1)N[C@@H]1CCCN(c2ccc(N3CC4(COC4)C3)cc2)C1=O [Example 12] here?
A: 100 to 1000 nM

Q: And the EC50 [1, 4]?
A: 380 nM

Q: And the EC50 [2]?
A: 5000 nM

Q: What does the source list for COCC1CCCCN1c1ccc(N2CCC[C@@H](NC(=O)Nc3ccc(C(F)(F)F)cc3)C2=O)cc1 (stereo partly shown) [Example 14]?
A: EC50 [1, 4]: 2.1 nM; EC50 [2]: 36 nM

Q: Which EC50 [1, 4] does the source give for COCC1CCCCN1c1ccc(N2CCC[C@@H](NC(=O)Nc3ccc(C(F)(F)F)nc3)C2=O)cc1 (stereo partly shown) [Example 15] here?
A: 32 nM

Q: And the EC50 [2]?
A: 660 nM

Q: With COC[C@@H]1CCCN1c1ccc(N2CCC[C@@H](NC(=O)Nc3ccc(Cl)cc3)C2=O)cc1 [Example 26] as the compound, how does the EC50 [1, 3] read?
A: ≤ 10 nM

Q: And the EC50 [1, 4]?
A: 3.7 nM

Q: What about the EC50 [2] of the same compound?
A: 12 nM

Q: CS(=O)(=O)N1CCN(c2ccc(N3CCC[C@@H](NC(=O)Nc4ccc(C(F)(F)F)cc4)C3=O)cc2)CC1 [Example 34] was tested. Which EC50 [1, 4] did it give?
A: 400 nM

Q: And the EC50 [2]?
A: 2200 nM

Q: Which EC50 [1, 4] does the source give for O=C(Nc1ccc(C(F)(F)F)cc1)N[C@@H]1CCCN(c2ccc(N3CCCCC3)cc2)C1=O [Example 45] here?
A: 3 nM

Q: And the EC50 [2]?
A: 11 nM

Q: How did the EC50 [1, 4] turn out when O=C(Nc1ccc(C(F)(F)F)nc1)N[C@@H]1CCCN(c2ccc(N3CCCCC3=O)cc2F)C1=O [Example 50] was run?
A: 330 nM

Q: And the EC50 [2]?
A: > 10000 nM

Q: Which EC50 [1, 4] does the source give for O=C(Nc1ccc(C(F)(F)F)cc1)N[C@@H]1CCCN(c2ccc(N3CCOCC3)nc2)C1=O [Example 54, (R)-1-(1-(6-Morpholinopyridin-3-yl)-2-oxopiperidin-3-yl)-3-(4-(trifluoromethyl)phenyl)urea] here?
A: 31 nM

Q: And the EC50 [2]?
A: 920 nM

Q: For O=C(Nc1ccc(C(F)(F)F)cc1)N[C@@H]1CCCN(c2ccc(N3CCCC(CO)C3)nc2)C1=O (stereo partly shown) [Example 56], which EC50 [1, 4] is on record?
A: 1.8 nM

Q: And the EC50 [2]?
A: 45 nM

Q: CC(=O)N[C@@H]1CCN(c2ccc(N3CCC[C@@H](NC(=O)Nc4ccc(C(F)(F)F)cc4)C3=O)cc2)C1 [Example 69] was tested. Which EC50 [1, 4] did it give?
A: 14 nM

Q: What about the EC50 [2] of the same compound?
A: 190 nM

Q: Which results are given for O=C(Nc1ccc(C(F)(F)F)cc1)N[C@@H]1CCCN(c2ccc(N3CCCC(F)(F)C3)cc2)C1=O [Example 70]?
A: EC50 [1, 4]: 2.4 nM; EC50 [2]: 67 nM

Q: Which results are given for CN(C)C1CCCN(c2ccc(N3CCC[C@@H](NC(=O)Nc4ccc(C(F)(F)F)cc4)C3=O)cc2)C1 (stereo partly shown) [Example 77]?
A: EC50 [1, 4]: 0.18 nM; EC50 [2]: 1100 nM

Q: Which EC50 [1, 4] does the source give for CN(C)C1CCN(c2ccc(N3CCC[C@@H](NC(=O)Nc4ccc(Cl)cc4F)C3=O)c(F)c2)C1 (stereo partly shown) [Example 81] here?
A: 0.31 nM

Q: And the EC50 [2]?
A: 1700 nM

Q: CN(C)C1CCN(c2ccc(N3CCC[C@@H](NC(=O)Nc4ccc(Cl)cc4)C3=O)cc2F)C1 (stereo partly shown) [Example 83] was tested. Which EC50 [1, 4] did it give?
A: 0.39 nM

Q: And the EC50 [2]?
A: 1100 nM

Q: With CN(C)C(=O)C1CCN(c2ccc(N3CCC[C@@H](NC(=O)Nc4ccc(Cl)cc4F)C3=O)cc2)C1 (stereo partly shown) [Example 86] as the compound, how does the EC50 [1, 3] read?
A: ≤ 10 nM

Q: Which EC50 [1, 3] does the source give for CS(=O)(=O)C1CCN(c2ccc(N3CCC[C@@H](NC(=O)Nc4ccc(Cl)cc4)C3=O)c(F)c2F)C1 (stereo partly shown) [Example 87] here?
A: ≤ 10 nM

Q: How did the EC50 [1, 3] turn out when O=C(Nc1ccc(Cl)cc1F)N[C@@H]1CCCN(c2ccc(N3CC[C@@H](F)C3)c(F)c2F)C1=O [Example 88] was run?
A: ≤ 10 nM

Q: With CS(=O)(=O)C1CCN(c2ccc(N3CCC[C@@H](NC(=O)Nc4ccc(Cl)cc4F)C3=O)c(F)c2F)C1 (stereo partly shown) [Example 89] as the compound, how does the EC50 [1, 3] read?
A: ≤ 10 nM

Q: How did the EC50 [1, 3] turn out when CS(=O)(=O)C1CCN(c2cc(F)c(N3CCC[C@@H](NC(=O)Nc4ccc(Cl)cc4F)C3=O)c(F)c2)C1 (stereo partly shown) [Example 90] was run?
A: ≤ 10 nM

Q: Which EC50 [1, 3] does the source give for CC1(O)CCCN(c2ccc(N3CCC[C@@H](NC(=O)Nc4ccc(Cl)cc4)C3=O)cc2)C1 (stereo partly shown) [Example 93] here?
A: ≤ 10 nM

Q: With CC1(O)CCN(c2ccc(N3CCC[C@@H](NC(=O)Nc4ccc(Cl)cc4)C3=O)cc2)C1 (stereo partly shown) [Example 94] as the compound, how does the EC50 [1, 3] read?
A: ≤ 10 nM

Q: What does the source list for O=C(Nc1ccc(Cl)cc1)N[C@@H]1CCCN(c2ccc(N3C[C@H]4COC[C@H]4C3)cc2)C1=O [Example 95]?
A: EC50 [1, 4]: 2.5 nM; EC50 [2]: 76 nM

Q: How did the EC50 [1, 3] turn out when O=C(Nc1ccc(Cl)cc1)N[C@@H]1CCCN(c2ccc(N3CCC4(CC4)C3)cc2)C1=O [Example 96] was run?
A: ≤ 10 nM

Q: For O=C(Nc1ccc(Cl)cc1)N[C@@H]1CCCN(c2ccc(N3CCC(C4CC4)C3)cc2)C1=O (stereo partly shown) [Example 97], which EC50 [1, 3] is on record?
A: ≤ 10 nM

Q: With O=C(Nc1ccc(Cl)cc1)N[C@@H]1CCCN(c2ccc(N3C[C@@H](F)[C@@H](F)C3)cc2)C1=O [Example 98] as the compound, how does the EC50 [1, 3] read?
A: ≤ 10 nM

Q: Which EC50 [1, 3] does the source give for CC1(F)CCN(c2ccc(N3CCC[C@@H](NC(=O)Nc4ccc(Cl)cc4)C3=O)cc2)CC1 [Example 99] here?
A: ≤ 10 nM

Q: How did the EC50 [1, 3] turn out when O=C(Nc1ccc(Cl)cc1)N[C@@H]1CCCN(c2ccc(N3CCC(O)(C(F)(F)F)CC3)cc2)C1=O [Example 100] was run?
A: ≤ 10 nM

Q: How did the EC50 [1, 3] turn out when O=C(Nc1ccc(Cl)cc1)N[C@@H]1CCCN(c2ccc(N3CCC4(CCCO4)CC3)cc2)C1=O [Example 101] was run?
A: ≤ 10 nM

Q: What does the source list for O=C(Nc1ccc(Cl)cc1)N[C@@H]1CCCN(c2ccc(N3CCC4(CCCO4)CC3)cc2)C1=O [Example 102]?
A: EC50 [1, 4]: 15 nM; EC50 [2]: 61 nM

Q: Which EC50 [1, 3] does the source give for CN(C)C1CCN(c2ccc(N3CCC[C@@H](NC(=O)Nc4ccc(Cl)cc4)C3=O)cn2)C1 (stereo partly shown) [Example 103] here?
A: ≤ 10 nM

Q: O=C(Nc1ccc(C(F)(F)F)cc1)N[C@@H]1CCCN(c2ccc(N3C[C@H]4CC[C@@H](C3)O4)nc2)C1=O [Example 104] was tested. Which EC50 [1, 4] did it give?
A: 18 nM

Q: And the EC50 [2]?
A: 630 nM

Q: O=C(Nc1ccc(Cl)cc1F)N[C@@H]1CCCN(c2ccc(N3CC[C@@H](F)C3)nc2)C1=O [Example 105] was tested. Which EC50 [1, 3] did it give?
A: ≤ 10 nM

Q: How did the EC50 [1, 3] turn out when O=C(Nc1ccc(Cl)cc1F)N[C@@H]1CCCN(c2ccc(N3CC[C@@H](O)C3)nc2)C1=O [Example 106] was run?
A: ≤ 10 nM

Q: How did the EC50 [1, 4] turn out when O=C(Nc1ccc(Cl)cc1)N[C@@H]1CCCN(c2ccc(N3C[C@H]4CC[C@@H](C3)O4)cc2F)C1=O [Example 107] was run?
A: 2.6 nM

Q: What about the EC50 [2] of the same compound?
A: 330 nM

Q: For CS(=O)(=O)C1CCN(c2ccc(N3CCC[C@@H](NC(=O)Nc4ccc(C(F)(F)F)cc4)C3=O)cc2)C1 (stereo partly shown) [Example 108], which EC50 [1, 3] is on record?
A: ≤ 10 nM
